Data from patent US20260151538A1, “DIFFERENTIATION AND REPROGRAMMING OF CHONDROCYTE” (ADA Forsyth Institute, Inc., priority 2022, published 2026).

Columns and labels:
[1] = system: GATA3; details: literature reports (Attakpa 2009; Gocke 2009; Ahmad 2017); cited from earlier work
[2] = system: ATDC5 cells; test: ATDC5 micro-mass culture chondrogenesis, alcian blue staining; assay type: cell-based, mouse; details: ATDC5 cells in micro-mass culture; DHA at 0, 1, 5, 25 and 125 μM; quantified with ImageJ
Excerpt: To further investigate the beneficial effects of GATA3 stimulation on cartilage regeneration, the inventors examined GATA3 activators in chondrogenesis. Using the ATDC5 cell line derived from mouse teratocarcinoma (undifferentiated embryonal carcinoma that can give rise to all three germ layers), the inventors first cultured the cells in micro-mass followed by differentiation into chondrocytes. Next, the inventors testes if the addition of GATA3 activators to the micro-mass culture could promote chondrogenesis. Staining was then performed to detect chondrogenic cells, which were positive for alcian blue. Imaging and quantitative analysis was then carried out to determine the percentage of the positively stained area using ImageJ.

Structure (SMILES)	GATA3 expression (transcripts and proteins) [1]	chondrocyte differentiation / chondrogenesis (percentage of alcian blue positively stained area) [2]
N#CC(=C(/N)Sc1ccccc1N)/C(C#N)=C(\N)Sc1ccccc1N [U0126]	enhance GATA3 expression	–
Nc1nc2c(cnn2CCc2ccccc2)c2nc(-c3ccco3)nn12 [SCH 58261]	enhance GATA3 expression	–
Cc1ccc(C)c(OCCCC(C)(C)C(=O)O)c1 [Gemfibrozil]	enhance GATA3 expression	substantial stimulated effects on chondrogenesis
Cc1cccc(Nc2cc(Cl)nc(SCC(=O)O)n2)c1C [Pirinixic acid]	enhance GATA3 expression	substantial stimulated effects on chondrogenesis
Oc1ccc(-c2nc(-c3ccncc3)c(-c3ccc(F)cc3)[nH]2)cc1 [SB202190]	enhance GATA3 expression	substantial stimulated effects on chondrogenesis
